Activity calls are given as the source filed them.
Experiments:
[1] = target: T1, Voltage-gated N-type calcium channel alpha-1B subunit/Amyloid beta A4 precursor protein-binding family A member 1 (Homo sapiens, UniProt Q00975+Q02410); assay type: protein assay
[2] = target: T1, Voltage-gated N-type calcium channel alpha-1B subunit/Amyloid beta A4 precursor protein-binding family A member 1; assay type: protein assay; remark: listed apart in the source
[3] = cells; assay type: functional
[4] = target: Cytochrome P450 2C9 (Homo sapiens, UniProt P11712)
[5] = target: T2, fMet-Leu-Phe receptor (Homo sapiens, UniProt P21462); assay: formyl peptide receptor binders – dose response (AID 519); assay type: functional
T2 sequence (P21462 whole entry): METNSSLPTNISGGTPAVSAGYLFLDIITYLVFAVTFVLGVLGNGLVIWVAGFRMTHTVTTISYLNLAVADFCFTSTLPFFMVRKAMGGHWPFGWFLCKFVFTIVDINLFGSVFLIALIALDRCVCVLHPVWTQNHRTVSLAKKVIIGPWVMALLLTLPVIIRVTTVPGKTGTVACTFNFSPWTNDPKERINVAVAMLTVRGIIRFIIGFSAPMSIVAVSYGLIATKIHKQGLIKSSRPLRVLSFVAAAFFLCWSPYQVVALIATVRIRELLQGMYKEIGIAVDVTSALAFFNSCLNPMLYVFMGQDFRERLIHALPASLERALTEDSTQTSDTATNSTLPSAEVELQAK

[6] = target: Cytochrome P450 2C19 (Homo sapiens, UniProt P33261); assay: Cytochrome panel assay with activity outcomes. Panel member name: p450-cyp2c19 Compounds with AC50 equal or less than 10 uM are considered active; assay type: functional; conditions: read-out: AC50
[7] = target: T3, Short transient receptor potential channel 4 (Mus musculus, UniProt Q9QUQ5); assay: block of DAMGO-driven TRPC4 calcium entry – cell-based, HEK293 TRPC4/mu-opioid, Fluo-4 calcium, dose response (AID 434942); assay type: functional;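 note: potency of inhibitors blocking the TRPC4 calcium response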
T3 sequence (Q9QUQ5 whole entry): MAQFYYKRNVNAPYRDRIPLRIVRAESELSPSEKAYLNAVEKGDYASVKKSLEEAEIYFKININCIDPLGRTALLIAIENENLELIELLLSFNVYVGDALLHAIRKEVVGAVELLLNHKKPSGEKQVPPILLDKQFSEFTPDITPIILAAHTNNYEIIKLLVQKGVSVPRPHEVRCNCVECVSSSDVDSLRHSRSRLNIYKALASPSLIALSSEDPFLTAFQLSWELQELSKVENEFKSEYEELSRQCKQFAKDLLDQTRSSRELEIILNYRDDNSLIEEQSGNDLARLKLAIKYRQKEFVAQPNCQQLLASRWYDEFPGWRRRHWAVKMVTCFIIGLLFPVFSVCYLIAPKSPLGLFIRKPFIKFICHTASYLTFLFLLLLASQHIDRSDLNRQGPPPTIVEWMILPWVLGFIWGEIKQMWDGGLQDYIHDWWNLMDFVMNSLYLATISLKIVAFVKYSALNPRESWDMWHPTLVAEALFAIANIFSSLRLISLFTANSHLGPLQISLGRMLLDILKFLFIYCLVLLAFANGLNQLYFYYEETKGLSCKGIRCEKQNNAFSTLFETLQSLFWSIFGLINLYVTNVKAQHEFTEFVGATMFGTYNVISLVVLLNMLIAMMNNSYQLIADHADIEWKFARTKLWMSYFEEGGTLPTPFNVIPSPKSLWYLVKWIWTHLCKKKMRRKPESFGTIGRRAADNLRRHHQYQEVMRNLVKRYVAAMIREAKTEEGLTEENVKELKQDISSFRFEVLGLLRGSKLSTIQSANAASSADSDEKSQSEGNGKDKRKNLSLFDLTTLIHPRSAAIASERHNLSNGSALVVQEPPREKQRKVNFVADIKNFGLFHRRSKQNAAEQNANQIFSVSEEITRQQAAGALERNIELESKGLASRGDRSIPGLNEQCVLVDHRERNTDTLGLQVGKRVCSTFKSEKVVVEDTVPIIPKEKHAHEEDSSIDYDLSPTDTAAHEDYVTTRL

[8] = target: T4, Heat shock factor protein 1 (Mus musculus, UniProt P38532); assay: decrease of HSF1-responsive luciferase luminescence – cell-based, NIH3T3, dose retest, confirmation (AID 2382); assay type: functional;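 note: NIH3T3 fibroblasts with HSF1-driven luciferase reporter stressed by proteasome inhibitor MG132; luminescence from HSF1-driven luciferase expression after 8 hours of MG132 stress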
T4 sequence (P38532 whole entry): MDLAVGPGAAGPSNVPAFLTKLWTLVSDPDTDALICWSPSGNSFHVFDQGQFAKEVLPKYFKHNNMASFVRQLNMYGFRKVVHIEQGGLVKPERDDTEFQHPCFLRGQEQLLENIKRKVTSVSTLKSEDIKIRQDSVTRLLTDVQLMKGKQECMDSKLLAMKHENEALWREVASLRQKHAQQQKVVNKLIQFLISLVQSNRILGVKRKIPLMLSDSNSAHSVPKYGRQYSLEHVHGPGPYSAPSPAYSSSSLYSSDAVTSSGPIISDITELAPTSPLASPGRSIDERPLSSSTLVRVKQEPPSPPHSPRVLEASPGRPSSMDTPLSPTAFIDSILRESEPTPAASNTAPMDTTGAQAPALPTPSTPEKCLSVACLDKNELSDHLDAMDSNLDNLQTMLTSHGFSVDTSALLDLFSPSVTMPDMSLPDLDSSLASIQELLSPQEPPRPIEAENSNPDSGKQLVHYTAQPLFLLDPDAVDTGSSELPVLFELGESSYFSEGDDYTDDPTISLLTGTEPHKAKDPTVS

[9] = HEK-293T viability loss after treatment – luminescence, T-cell screen hits, cytotoxicity control for TCR NF-kB inhibitor project, dose response (AID 489026); assay type: functional, cell-based;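 note: cells exposed to compound about 14 hours before the viability readout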
[10] = system: INS1; assay: INS-1E survival protection against cytokine death – cell-based, luminescence, retest, dose response (AID 449756); assay type: functional; conditions: Rattus norvegicus;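 note: cell death triggered by IL-1 beta plus TNF-alpha plus IFN-gamma mixture; protective hits raise ATP signal compared with cytokine alone wells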
[11] = reduction of Shn3 3'UTR-driven luciferase in osteoblasts – cell-based, Clone20 osteoblasts, firefly luciferase, cherry-picked, dose response (AID 624132); assay type: functional;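 note: firefly luciferase luminescence from reporter carrying the Shn3 3'UTR in osteoblasts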
[12] = loss of viability in HepG2 cells – cell-based, CellTiter-Glo, cherry-picked, cytotoxicity control for Shn3 inhibitor project, dose response (AID 624134); assay type: functional
[13] = non-specific 3'UTR reporter inhibition in Clone20-Shn3RL – cell-based, Renilla luciferase, cherry-picked, counter-screen for Shn3 inhibitor project, dose response (AID 624133); assay type: functional
[14] = luciferase reporter signal suppression in cells – H4 neuroglioma cells, luminescence, dose response (AID 1990); assay type: functional, cell-based
[15] = system: BJ; assay: BJ-TERT fibroblast viability loss – cell-based, RAS-independent, luminescence, dose response (AID 1933); assay type: functional; conditions: Homo sapiens
[16] = Luminescence Cell-Based Dose Response HTS to Identify Inhibitors of 5'UTR Stem-Loop Driven Prion Protein mRNA Translation in H4 Neuroglioblastoma Cells. [Related pubchem assays: 1827 (Project Summary), 1813 (Primary HTS)]; assay type: functional
[17] = alpha-synuclein stem-loop luciferase translation blockers – H4 neuroglioma cells, luminescence, confirmation (AID 1988); assay type: functional, cell-based
[18] = system: BJ; assay: cells; assay type: functional, cell-based; conditions: Homo sapiens
[19] = system: BJ; assay: BJ-TERT-LT-ST fibroblast viability loss – cell-based, RAS-independent, luminescence, dose response (AID 1935); assay type: functional; conditions: Homo sapiens;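 note: BJ fibroblasts immortalized with TERT plus LT and ST oncogenes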
[20] = DRD fibroblast viability loss – cell-based, non-viral oncogenic, luminescence, dose response (AID 1934); assay type: functional; conditions: Homo sapiens
[21] = system: Streptococcus sp. 'group A'; assay: Streptococcus pyogenes SK(-)GAS viability under kanamycin – luminescence, BacTiterGlo, confirmation, counter-screen for streptokinase expression inhibitor project, dose response (AID 1900); assay type: functional, organism-based
[22] = cells; assay type: functional, cell-based
[23] = cells; assay type: functional, cell-based; remark: listed apart in the source
[24] = target: Induced myeloid leukemia cell differentiation protein Mcl-1 (Homo sapiens, UniProt Q07820); assay type: functional
[25] = system: Streptococcus; assay: GAS UMAA2166 growth inhibition – luminescence, BacTiterGlo, counter-screen for streptokinase expression inhibitor project, dose response (AID 1915); assay type: functional, organism-based;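 note: potency for reduction of bacterial viability or growth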
[26] = target: Cytochrome P450 2D6 (Homo sapiens, UniProt P10635)
[27] = P. falciparum Dd2 growth inhibitors, dose response, SYBR Green, cherry-picked samples (AID 1159567); assay type: functional, cell-based
[28] = system: P388/ADR; assay: cells; assay type: functional; conditions: Mus musculus
[29] = system: SN12K1; assay: cells; assay type: functional; conditions: Homo sapiens
[30] = system: P388; assay: cells; assay type: functional; conditions: Mus musculus
[31] = target: Large T antigen (Simian virus 40, UniProt P03070); assay type: functional, Betapolyomavirus macacae;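 note: Confirmatory-stage PubChem screen for compounds that inhibit SV40 T antigen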

T1 sequence (Q00975 whole entry): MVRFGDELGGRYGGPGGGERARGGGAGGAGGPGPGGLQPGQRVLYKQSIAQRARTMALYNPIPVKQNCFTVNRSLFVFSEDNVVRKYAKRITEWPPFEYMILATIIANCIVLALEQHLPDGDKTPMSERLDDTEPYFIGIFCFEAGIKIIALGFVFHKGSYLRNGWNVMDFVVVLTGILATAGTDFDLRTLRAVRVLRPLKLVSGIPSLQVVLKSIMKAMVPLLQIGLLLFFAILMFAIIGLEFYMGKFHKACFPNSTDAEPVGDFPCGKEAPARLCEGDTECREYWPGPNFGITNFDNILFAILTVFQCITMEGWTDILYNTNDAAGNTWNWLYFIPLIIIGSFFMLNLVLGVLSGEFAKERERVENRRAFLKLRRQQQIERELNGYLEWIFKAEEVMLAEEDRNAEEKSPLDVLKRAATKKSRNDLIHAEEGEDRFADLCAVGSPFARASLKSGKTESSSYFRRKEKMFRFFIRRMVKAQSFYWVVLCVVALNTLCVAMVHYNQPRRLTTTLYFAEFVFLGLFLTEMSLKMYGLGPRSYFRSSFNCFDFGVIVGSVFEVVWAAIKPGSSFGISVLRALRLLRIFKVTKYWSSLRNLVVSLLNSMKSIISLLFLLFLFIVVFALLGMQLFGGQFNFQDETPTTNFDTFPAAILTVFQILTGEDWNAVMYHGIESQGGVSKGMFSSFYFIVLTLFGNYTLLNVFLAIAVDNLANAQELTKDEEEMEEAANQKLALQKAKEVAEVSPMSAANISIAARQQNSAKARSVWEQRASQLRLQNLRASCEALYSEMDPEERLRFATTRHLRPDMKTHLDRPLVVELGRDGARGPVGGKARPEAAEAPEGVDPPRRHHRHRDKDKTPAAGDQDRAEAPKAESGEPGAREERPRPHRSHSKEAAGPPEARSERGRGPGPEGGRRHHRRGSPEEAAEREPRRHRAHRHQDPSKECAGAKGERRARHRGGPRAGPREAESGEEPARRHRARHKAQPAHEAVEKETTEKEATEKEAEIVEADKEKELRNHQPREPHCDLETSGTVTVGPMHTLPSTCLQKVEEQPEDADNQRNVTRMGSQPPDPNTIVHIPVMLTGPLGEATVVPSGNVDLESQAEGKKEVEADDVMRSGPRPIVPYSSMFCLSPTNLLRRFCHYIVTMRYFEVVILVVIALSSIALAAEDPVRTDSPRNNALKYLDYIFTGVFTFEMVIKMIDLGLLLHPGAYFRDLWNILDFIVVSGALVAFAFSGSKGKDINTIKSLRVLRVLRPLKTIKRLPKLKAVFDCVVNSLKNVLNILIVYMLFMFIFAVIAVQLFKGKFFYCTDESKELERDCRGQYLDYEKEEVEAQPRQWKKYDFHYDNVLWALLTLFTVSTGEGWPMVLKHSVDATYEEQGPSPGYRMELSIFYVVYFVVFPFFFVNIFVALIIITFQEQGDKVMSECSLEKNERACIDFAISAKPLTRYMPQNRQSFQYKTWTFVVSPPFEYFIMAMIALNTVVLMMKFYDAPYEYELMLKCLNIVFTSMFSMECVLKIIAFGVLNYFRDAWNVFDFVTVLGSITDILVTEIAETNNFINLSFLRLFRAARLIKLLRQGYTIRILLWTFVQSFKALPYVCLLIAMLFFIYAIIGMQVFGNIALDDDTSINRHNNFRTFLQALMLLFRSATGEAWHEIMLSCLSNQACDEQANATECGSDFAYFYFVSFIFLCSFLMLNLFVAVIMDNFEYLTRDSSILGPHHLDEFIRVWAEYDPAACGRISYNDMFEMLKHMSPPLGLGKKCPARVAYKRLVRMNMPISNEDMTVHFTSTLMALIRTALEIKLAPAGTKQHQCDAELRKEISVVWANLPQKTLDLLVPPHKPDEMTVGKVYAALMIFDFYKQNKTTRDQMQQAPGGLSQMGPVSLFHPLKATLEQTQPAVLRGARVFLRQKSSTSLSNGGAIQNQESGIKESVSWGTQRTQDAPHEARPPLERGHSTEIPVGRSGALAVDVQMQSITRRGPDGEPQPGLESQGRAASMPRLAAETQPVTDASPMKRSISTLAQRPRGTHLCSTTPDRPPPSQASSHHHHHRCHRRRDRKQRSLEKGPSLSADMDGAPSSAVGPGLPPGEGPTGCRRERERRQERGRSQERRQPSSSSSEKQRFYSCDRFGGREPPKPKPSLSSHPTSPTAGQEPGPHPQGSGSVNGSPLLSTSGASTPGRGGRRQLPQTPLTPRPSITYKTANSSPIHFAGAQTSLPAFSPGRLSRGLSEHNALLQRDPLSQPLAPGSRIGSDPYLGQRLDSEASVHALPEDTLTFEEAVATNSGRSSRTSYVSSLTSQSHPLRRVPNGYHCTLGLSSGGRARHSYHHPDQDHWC
T1 sequence (Q02410 whole entry): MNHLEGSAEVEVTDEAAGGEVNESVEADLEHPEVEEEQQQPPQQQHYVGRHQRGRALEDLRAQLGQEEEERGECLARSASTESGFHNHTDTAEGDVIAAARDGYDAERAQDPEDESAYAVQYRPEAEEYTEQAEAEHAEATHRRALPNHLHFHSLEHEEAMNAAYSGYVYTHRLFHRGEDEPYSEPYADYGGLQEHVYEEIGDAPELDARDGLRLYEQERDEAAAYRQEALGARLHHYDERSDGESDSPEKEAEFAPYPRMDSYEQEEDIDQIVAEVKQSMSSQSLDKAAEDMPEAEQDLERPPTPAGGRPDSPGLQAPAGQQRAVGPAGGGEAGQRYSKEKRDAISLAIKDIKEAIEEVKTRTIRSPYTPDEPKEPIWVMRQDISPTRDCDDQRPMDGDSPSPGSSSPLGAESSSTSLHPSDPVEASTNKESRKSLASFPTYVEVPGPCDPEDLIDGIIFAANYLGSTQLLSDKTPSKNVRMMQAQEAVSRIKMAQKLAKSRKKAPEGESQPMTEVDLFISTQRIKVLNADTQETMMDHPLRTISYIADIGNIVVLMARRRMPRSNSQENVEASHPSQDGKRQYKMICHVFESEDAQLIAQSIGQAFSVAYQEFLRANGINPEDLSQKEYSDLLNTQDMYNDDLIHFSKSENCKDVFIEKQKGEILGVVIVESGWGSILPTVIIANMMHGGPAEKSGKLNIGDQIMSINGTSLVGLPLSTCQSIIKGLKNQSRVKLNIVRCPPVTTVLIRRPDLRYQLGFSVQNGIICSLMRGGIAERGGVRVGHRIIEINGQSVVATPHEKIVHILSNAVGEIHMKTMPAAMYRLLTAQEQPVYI
Cytochrome P450 2C9, sequence (P11712 whole entry): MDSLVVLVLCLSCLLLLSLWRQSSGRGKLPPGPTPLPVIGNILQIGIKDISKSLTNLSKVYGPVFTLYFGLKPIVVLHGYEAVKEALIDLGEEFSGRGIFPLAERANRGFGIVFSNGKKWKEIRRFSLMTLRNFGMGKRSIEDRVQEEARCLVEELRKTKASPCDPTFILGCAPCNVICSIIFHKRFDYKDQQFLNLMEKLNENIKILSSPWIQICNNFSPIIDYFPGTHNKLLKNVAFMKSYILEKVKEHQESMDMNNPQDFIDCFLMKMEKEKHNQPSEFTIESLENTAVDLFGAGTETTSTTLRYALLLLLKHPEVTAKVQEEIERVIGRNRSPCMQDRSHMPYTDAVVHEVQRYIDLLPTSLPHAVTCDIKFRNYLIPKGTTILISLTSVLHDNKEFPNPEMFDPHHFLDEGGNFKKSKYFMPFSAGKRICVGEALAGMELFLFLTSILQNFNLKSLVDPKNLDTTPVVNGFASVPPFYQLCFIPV
Cytochrome P450 2D6, sequence (P10635 whole entry): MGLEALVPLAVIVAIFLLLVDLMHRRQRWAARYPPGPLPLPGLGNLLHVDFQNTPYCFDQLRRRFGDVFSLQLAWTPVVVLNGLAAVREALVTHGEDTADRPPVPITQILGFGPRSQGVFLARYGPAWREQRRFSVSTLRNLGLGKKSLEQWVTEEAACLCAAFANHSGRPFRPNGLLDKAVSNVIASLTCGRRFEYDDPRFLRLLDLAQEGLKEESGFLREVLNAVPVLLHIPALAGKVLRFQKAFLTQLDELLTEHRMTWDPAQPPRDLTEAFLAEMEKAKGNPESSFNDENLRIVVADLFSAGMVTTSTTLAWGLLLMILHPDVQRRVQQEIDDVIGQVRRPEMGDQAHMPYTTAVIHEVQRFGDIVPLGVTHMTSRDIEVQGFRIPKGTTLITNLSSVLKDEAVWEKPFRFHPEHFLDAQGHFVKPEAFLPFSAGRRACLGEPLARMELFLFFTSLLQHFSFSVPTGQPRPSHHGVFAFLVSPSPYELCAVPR
Cytochrome P450 2C19, sequence (P33261 whole entry): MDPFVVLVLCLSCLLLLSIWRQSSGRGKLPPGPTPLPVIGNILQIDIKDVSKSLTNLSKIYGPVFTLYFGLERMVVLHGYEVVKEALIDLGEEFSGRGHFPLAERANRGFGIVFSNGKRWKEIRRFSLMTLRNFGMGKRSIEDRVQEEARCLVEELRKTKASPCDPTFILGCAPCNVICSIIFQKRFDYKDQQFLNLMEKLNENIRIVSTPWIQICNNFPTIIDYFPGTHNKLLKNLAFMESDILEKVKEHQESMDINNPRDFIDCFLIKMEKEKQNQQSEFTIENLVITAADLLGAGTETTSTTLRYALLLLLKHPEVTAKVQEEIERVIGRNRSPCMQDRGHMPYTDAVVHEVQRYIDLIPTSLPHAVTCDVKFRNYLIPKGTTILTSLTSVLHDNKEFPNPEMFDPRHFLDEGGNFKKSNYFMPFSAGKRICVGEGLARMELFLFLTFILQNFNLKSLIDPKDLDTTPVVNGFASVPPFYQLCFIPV
Induced myeloid leukemia cell differentiation protein Mcl-1, sequence (Q07820 whole entry): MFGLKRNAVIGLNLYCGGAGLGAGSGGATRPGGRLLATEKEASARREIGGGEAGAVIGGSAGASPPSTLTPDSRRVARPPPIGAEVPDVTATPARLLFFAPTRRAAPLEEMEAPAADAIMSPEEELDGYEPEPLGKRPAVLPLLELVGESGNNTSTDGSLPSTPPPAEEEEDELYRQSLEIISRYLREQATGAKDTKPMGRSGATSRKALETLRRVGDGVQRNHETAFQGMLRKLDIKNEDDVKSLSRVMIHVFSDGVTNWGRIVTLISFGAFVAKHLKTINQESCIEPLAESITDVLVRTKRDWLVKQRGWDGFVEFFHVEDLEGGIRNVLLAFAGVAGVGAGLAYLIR

For `Cc1cccc(-n2cnc3c(c2=O)c2nc4ccccc4nc2n3Cc2ccco2)c1`, the IC50 [1] was 2.16 µM (active) and the IC50 [2] was 0.871 µM (active).

For `CC(C)c1ccc(OCC(=O)NNC(=O)c2cnccn2)cc1`, the IC50 [3] was 11.9 µM (active).

In the case of `CN(C)c1ncc2ncc(=O)n(CCC#N)c2n1`, the AC50 [4] is reported as “inconclusive”.

In the case of `COc1ccc(NC(=O)C2C3CCC(C3)C2C(=O)O)cc1OC` (stereo not given), the Ki [5] is reported as > 66.7 µM (inactive).

In the case of `CC1CCCC(NC(=O)CCn2c(=O)oc3ccccc32)C1C` (stereo not given), the AC50 [6] is reported as 4.47 µM (inconclusive) and the AC50 [4] is reported as “inconclusive”.

With `CC12CN3CC(C)(CN(C1)C3c1ccc(Cl)cc1Cl)C2O` (stereo not given) the EC50 [7] was 4.22 µM (active).

With `CCOC(=O)c1oc2cc(O)ccc2c(=O)c1-c1ccccc1OC` the Ki [5] was > 66.7 µM (inactive).

With `CCCS(=O)(=O)N1CCCC(C(=O)N2CCC(Cc3ccccc3)CC2)C1` (stereo not given) the EC50 [8] was > 195 µM (not active) and the Ki [5] was > 66.7 µM (inactive).

With `CCN(CC)S(=O)(=O)c1cc(NC(=O)CNc2cccc(S(=O)(=O)N3CCCC3)c2)ccc1C` the IC50 [9] was > 80 µM (inactive), the AC50 [10] was 5.23 µM (active) and the AC50 [11] was 0.648 µM (active). For the same compound, the AC50 [12] was 1.2 µM (active) and the AC50 [13] was > 70 µM (inactive).

With `CC(C)COCC1CC2(CC(C)(c3csc(N)n3)OC2=O)C(=O)O1` (stereo not given) the AC50 [4] was “inconclusive”.

In the case of `CCOC(=O)Cc1cc(O)n2nc(C)c(-c3ccc(OC)cc3)c2n1`, the Ki [5] is reported as 18.3 µM (inactive).

For `N#CC1=C(N)N=C(S)C(C(N)=O)C1c1ccc(Cl)cc1Cl` (stereo not given), the IC50 [1] was 13.3 µM (active) and the IC50 [2] was > 50 µM (inactive).

For `CN1CCN(CCCNC(=O)Nc2cccc3ccccc23)CC1`, the Ki [5] was > 66.7 µM (inactive).

For `CCOc1ccccc1NC(=O)Cn1nnc(C(=O)NCc2ccco2)c1N`, the EC50 [14] was 0.216 µM (active), the EC50 [15] was 2.66 µM (inconclusive) and the EC50 [16] was 0.134 µM (active). The EC50 [17] was 0.109 µM (active), the EC50 [18] was 3.17 µM (active) and the EC50 [19] was 1.81 µM (inconclusive). The EC50 [20] was 2.65 µM (active) and the IC50 [9] was > 80 µM (inactive).

In the case of `COc1ccc(C)cc1NC1=NC(C)(C)CS1`, the EC50 [7] is reported as 7.5 µM (active).

With `Cc1nn(C)cc1CNC(=O)CCC(=O)O` the AC50 [4] was “inconclusive”.

With `O=C(c1ccc(Cl)cc1)N(Cc1cccs1)C1CCS(=O)(=O)C1` (stereo not given) the Ki [5] was > 66.7 µM (inactive).

In the case of `O=C(N/N=C/c1ccncc1)c1ccc(NC(=O)c2ccc(Cl)cc2)cc1`, the IC50 [1] is reported as > 56.8 µM (not active) and the IC50 [2] is reported as > 50 µM (inactive).

With `COc1ccc(-c2cc(C(F)(F)F)nc(N3CCN(c4ccccc4)CC3)n2)cc1OC` the Ki [5] was > 66.7 µM (inactive).

With `Cc1cc(C(=O)N/N=C/c2cc(N=Nc3ccccc3)ccc2O)[nH]n1` the EC50 [14] was 13 µM (active), the EC50 [21] was 2.04 µM (active) and the EC50 [22] was 11.5 µM (active). For the same compound, the EC50 [16] was 10.7 µM (active), the IC50 [1] was 10.9 µM (active) and the EC50 [17] was 9.08 µM (active). For the same compound, the IC50 [2] was > 50 µM (inactive), the EC50 [23] was 27.9 µM (active) and the IC50 [24] was 2.22 µM (active). The EC50 [25] was 1.92 µM (active) and the AC50 [10] was 1.22 µM (active).

With `O=C(N/N=C/C=C/c1ccccc1)c1ccncc1` the IC50 [3] was 0.48 µM (active).

For `COc1ccc(OC)c(/C=N/NC(=O)c2csc3ccccc23)c1`, the AC50 [26] was 20 µM (inconclusive) and the AC50 [4] was “inconclusive”.

In the case of `COc1ccc(C#Cc2cccc(-c3nc(C(=O)N[C@@H]4CCN(Cc5ccccc5)C4)cc4c3[C@H](CCO)N([S+]([O-])C(C)(C)C)C4)c2)cc1OC` (stereo not given in full), the AC50 [27] is reported as 4.45 µM (active).

For `C/C=C/c1ccc2c(c1)[C@@H]1[C@@H](CCN1S(=O)(=O)c1ccccc1C)[C@H](CO)N2`, the AC50 [27] was 7.49 µM (active).

For `C[C@@H]1CN([C@@H](C)CO)S(=O)(=O)c2ccc(C#Cc3ccncc3)cc2O[C@H]1CN(C)S(=O)(=O)c1ccc(F)cc1`, the AC50 [27] was 2.95 µM (active).

In the case of `COCC(=O)N1CC2(C1)CN(Cc1ccccc1F)[C@H](CO)c1[nH]c3cc(OC)ccc3c12`, the AC50 [27] is reported as 11.5 µM (active).

In the case of `CN(C)c1nc(N(C)C)nc(N(C)C)n1` [ALTRETAMINE], the GI50 [28] is reported as > 136 µM (inactive), the GI50 [29] is reported as > 150 µM (inactive) and the GI50 [30] is reported as > 106 µM (inactive). The Ki [5] was > 66.7 µM (inactive).

With `Cc1cc(O)c(C=O)c2c1C(=O)Oc1c(CO)c(O)c3c(c1O2)C(O)OC3=O` (stereo not given) [SLAZINIC ACID] the IC50 [1] was 14.8 µM (active), the IC50 [31] was 17.5 µM (active) and the IC50 [2] was 12.5 µM (active).
